Experimental data as given in ChEMBL document CHEMBL1201862, “PubChem BioAssay data set” (2004).
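All cell lines were grown in 96-well plates and treated with compound for 48 hours. At the GI50, growth is halved.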 Activity calls are given as the source filed them. Cut-off read from the data, not from the text of the source: active = GI50 up to about 1.1 µM and inactive = higher.

Experiments:
Experiment in all cases: NCI tumour cell line growth inhibition, 48 h
786-0 = system: 786-0
ACHN = system: ACHN
CCRF-CEM = system: CCRF-CEM
COLO 205 = system: COLO 205
DU-145 = system: DU-145
HCT-116 = system: HCT-116
HOP-92 = system: HOP-92
IGROV-1 = system: IGROV-1
K562 = system: K562
MDA-MB-231 = system: MDA-MB-231
NCI-H226 = system: NCI-H226
OVCAR-5 = system: OVCAR-5
SF-268 = system: SF-268
SK-MEL-28 = system: SK-MEL-28
SN12C = system: SN12C
SNB-75 = system: SNB-75
SK-MEL-5 = system: SK-MEL-5

Structure (SMILES)	GI50 (786-0)	GI50 (ACHN)	GI50 (CCRF-CEM)	GI50 (COLO 205)	GI50 (DU-145)	GI50 (HCT-116)	GI50 (HOP-92)	GI50 (IGROV-1)	GI50 (K562)	GI50 (MDA-MB-231)	GI50 (NCI-H226)	GI50 (OVCAR-5)	GI50 (SF-268)	GI50 (SK-MEL-28)	GI50 (SN12C)	GI50 (SNB-75)	GI50 (SK-MEL-5)
O=c1cc(N2CCCC2)[nH]c(=O)n1-c1ccc(Cl)cc1	> 100 µM (inactive)	> 100 µM (inactive)	> 100 µM (inactive)	> 100 µM (inactive)	> 100 µM (inactive)	> 100 µM (inactive)	> 100 µM (inactive)	> 100 µM (inactive)	> 100 µM (inactive)	> 100 µM (inactive)	> 100 µM (inactive)	> 100 µM (inactive)	> 100 µM (inactive)	> 100 µM (inactive)	> 100 µM (inactive)	> 100 µM (inactive)	–
C=C1C(=O)[C@@]23CC[C@@H]4[C@@]5(C)CCC[C@@]4(OC5=O)[C@@]2(C)CC[C@@H]1C3	0.565 µM (active)	1.24 µM (inactive)	0.303 µM (active)	2.11 µM (inactive)	3.78 µM (inactive)	1.13 µM (inactive)	4.48 µM (inactive)	1.72 µM (inactive)	0.667 µM (active)	1.73 µM (inactive)	2.08 µM (inactive)	2.12 µM (inactive)	1.72 µM (inactive)	2.74 µM (inactive)	3.3 µM (inactive)	2.8 µM (inactive)	0.962 µM (active)
C/C(Nc1ccc(F)cc1)=C1/CCOC1=O	> 100 µM (inactive)	1.8 µM (inactive)	> 100 µM (inactive)	4.7 µM (inactive)	> 100 µM (inactive)	> 100 µM (inactive)	> 100 µM (inactive)	> 100 µM (inactive)	62.8 µM (inactive)	> 100 µM (inactive)	91.6 µM (inactive)	–	> 100 µM (inactive)	> 100 µM (inactive)	> 100 µM (inactive)	> 100 µM (inactive)	12.9 µM (inactive)
CC[C@]12C=CCN3CCC4(c5cc(/N=N/c6ccccc6)c(OC)cc5N(C)[C@H]4[C@@](O)(C(=O)OC)[C@@H]1OC(C)=O)[C@@H]32 (some centres not stated)	16.9 µM (inactive)	16.1 µM (inactive)	–	25.2 µM (inactive)	17.6 µM (inactive)	16.4 µM (inactive)	15.4 µM (inactive)	17.3 µM (inactive)	18.8 µM (inactive)	16.2 µM (inactive)	24 µM (inactive)	17 µM (inactive)	18.2 µM (inactive)	20.3 µM (inactive)	18.6 µM (inactive)	–	19.9 µM (inactive)
COc1ccccc1OC(=O)/C=C/c1ccccc1	> 100 µM (inactive)	> 100 µM (inactive)	–	> 100 µM (inactive)	> 100 µM (inactive)	> 100 µM (inactive)	> 100 µM (inactive)	> 100 µM (inactive)	–	> 100 µM (inactive)	> 100 µM (inactive)	> 100 µM (inactive)	52.1 µM (inactive)	> 100 µM (inactive)	> 100 µM (inactive)	> 100 µM (inactive)	> 100 µM (inactive)
CC(C)(C)OC(=O)NCCNCCNc1ccccc1	> 100 µM (inactive)	> 100 µM (inactive)	> 100 µM (inactive)	> 100 µM (inactive)	90.8 µM (inactive)	> 100 µM (inactive)	> 100 µM (inactive)	> 100 µM (inactive)	> 100 µM (inactive)	> 100 µM (inactive)	> 100 µM (inactive)	> 100 µM (inactive)	–	> 100 µM (inactive)	> 100 µM (inactive)	58.2 µM (inactive)	62.1 µM (inactive)
CC1=NN(c2cccc(Cl)c2)C2(SCC(=O)N2c2nc3ccccc3s2)/C1=C\c1ccc(N(C)C)cc1 (configuration not stated)	43.8 µM (inactive)	26.1 µM (inactive)	66.1 µM (inactive)	–	> 100 µM (inactive)	> 100 µM (inactive)	23.7 µM (inactive)	54.7 µM (inactive)	43.8 µM (inactive)	40.7 µM (inactive)	76 µM (inactive)	> 100 µM (inactive)	38.7 µM (inactive)	> 100 µM (inactive)	–	–	39.7 µM (inactive)
O=C1CC(CC(=O)c2ccc(Br)cc2)C(O)=C1C(=O)c1ccc(Br)cc1 (configuration not stated)	> 100 µM (inactive)	> 100 µM (inactive)	53.2 µM (inactive)	> 100 µM (inactive)	> 100 µM (inactive)	54.2 µM (inactive)	30.1 µM (inactive)	> 100 µM (inactive)	44.9 µM (inactive)	72.9 µM (inactive)	> 100 µM (inactive)	> 100 µM (inactive)	87.1 µM (inactive)	> 100 µM (inactive)	> 100 µM (inactive)	–	> 100 µM (inactive)
CCOC(=O)C1C(c2ccco2)C2(C#N)C(=N)OC1(C)C2(C#N)C#N (configuration not stated)	> 100 µM (inactive)	> 100 µM (inactive)	> 100 µM (inactive)	> 100 µM (inactive)	> 100 µM (inactive)	> 100 µM (inactive)	> 100 µM (inactive)	> 100 µM (inactive)	> 100 µM (inactive)	> 100 µM (inactive)	> 100 µM (inactive)	> 100 µM (inactive)	> 100 µM (inactive)	–	> 100 µM (inactive)	57.7 µM (inactive)	> 100 µM (inactive)
Cc1ccc2[nH]c3c(c2c1)CCC/C3=N/N=C(N)N	2.07 µM (inactive)	1.89 µM (inactive)	2.29 µM (inactive)	1.62 µM (inactive)	1.71 µM (inactive)	2.79 µM (inactive)	2.33 µM (inactive)	1.62 µM (inactive)	2.08 µM (inactive)	1.39 µM (inactive)	2.11 µM (inactive)	2.09 µM (inactive)	–	2.24 µM (inactive)	1.58 µM (inactive)	1.34 µM (inactive)	1.9 µM (inactive)
CC(C)(C)OC(=O)NNCC(O)COc1ccccc1 (configuration not stated)	> 100 µM (inactive)	> 100 µM (inactive)	> 100 µM (inactive)	> 100 µM (inactive)	> 100 µM (inactive)	> 100 µM (inactive)	> 100 µM (inactive)	> 100 µM (inactive)	> 100 µM (inactive)	> 100 µM (inactive)	> 100 µM (inactive)	> 100 µM (inactive)	> 100 µM (inactive)	> 100 µM (inactive)	> 100 µM (inactive)	–	> 100 µM (inactive)
CC(C)N(C(=O)C12C3(C(=O)C(C)(C)C)C4C5(C#N)C3C1(C(=O)C(C)(C)C)C5C42C(=O)C(C)(C)C)C(C)C (configuration not stated)	> 100 µM (inactive)	> 100 µM (inactive)	> 100 µM (inactive)	> 100 µM (inactive)	> 100 µM (inactive)	> 100 µM (inactive)	66.2 µM (inactive)	> 100 µM (inactive)	> 100 µM (inactive)	> 100 µM (inactive)	–	> 100 µM (inactive)	> 100 µM (inactive)	> 100 µM (inactive)	> 100 µM (inactive)	14.1 µM (inactive)	> 100 µM (inactive)
O=C(Oc1cncc(Cl)c1)c1cc2ccccc2sc1=O	63.5 µM (inactive)	86.1 µM (inactive)	–	49.9 µM (inactive)	89.1 µM (inactive)	78.3 µM (inactive)	71.4 µM (inactive)	49.5 µM (inactive)	31.7 µM (inactive)	61.5 µM (inactive)	22.4 µM (inactive)	> 100 µM (inactive)	49.5 µM (inactive)	46.5 µM (inactive)	60.3 µM (inactive)	27.8 µM (inactive)	31.7 µM (inactive)
CC(=O)OCC1OC(n2c(C)c(/N=N/c3ccc(C)cc3)c(C)c(C#N)c2=S)C(OC(C)=O)C(OC(C)=O)C1OC(C)=O (configuration not stated)	27.4 µM (inactive)	> 100 µM (inactive)	> 100 µM (inactive)	> 100 µM (inactive)	> 100 µM (inactive)	> 100 µM (inactive)	0.895 µM (active)	> 100 µM (inactive)	> 100 µM (inactive)	48.6 µM (inactive)	–	> 100 µM (inactive)	> 100 µM (inactive)	> 100 µM (inactive)	> 100 µM (inactive)	60.4 µM (inactive)	43.2 µM (inactive)
NS(=O)(=O)c1nnc(NSc2ccc([N+](=O)[O-])cc2)s1	> 100 µM (inactive)	> 100 µM (inactive)	–	> 100 µM (inactive)	> 100 µM (inactive)	> 100 µM (inactive)	> 100 µM (inactive)	–	> 100 µM (inactive)	> 100 µM (inactive)	> 100 µM (inactive)	> 100 µM (inactive)	> 100 µM (inactive)	> 100 µM (inactive)	> 100 µM (inactive)	–	> 100 µM (inactive)
C=C1C2C[C@@H]3O[C@H]4C[C@H]5O[C@@]6(C[C@@H]7O[C@]8(C[C@H](C)[C@@H]9O[C@@H]%10CC(CO)O[C@@H]%10C[C@@H]9O8)C[C@H](C)[C@@H]7O6)C[C@H]5O[C@H]4[C@H](C)[C@H]3OC(=O)C[C@H]3CC[C@@H]4OC5[C@H]6O[C@]7(CC[C@H]8CC(=C)[C@H](CC[C@@H](C[C@H]1C)O2)O8)CC6O[C@@H]5[C@@H](O7)[C@H]4O3 (some centres not stated)	< 0.0001 µM (active)	< 0.0001 µM (active)	< 0.0001 µM (active)	< 0.0001 µM (active)	< 0.0001 µM (active)	< 0.0001 µM (active)	< 0.0001 µM (active)	< 0.0001 µM (active)	< 0.0001 µM (active)	< 0.0001 µM (active)	< 0.0001 µM (active)	< 0.0001 µM (active)	< 0.0001 µM (active)	–	< 0.0001 µM (active)	< 0.0001 µM (active)	< 0.0001 µM (active)
Nc1nc(N)c2cc(Sc3cccc(C(F)(F)F)c3)ccc2n1 [WR-159412]	0.624 µM (active)	0.885 µM (active)	0.53 µM (active)	1.21 µM (inactive)	0.982 µM (active)	0.237 µM (active)	2.94 µM (inactive)	0.708 µM (active)	0.0883 µM (active)	0.364 µM (active)	–	13 µM (inactive)	2.22 µM (inactive)	4.46 µM (inactive)	0.729 µM (active)	3.17 µM (inactive)	3.71 µM (inactive)
